The values that follow are results of earlier work, collected in article PMC4101043 (Antiviral research, 2014).

Structures are written as SMILES. Like-named read-outs stand apart in the source and are kept apart here.

The test system of one data set is Wild-Type HIV-1 NL4-3. Conditions: MT-4 cells.
The conditions of data set [1]: dosage and study duration differ.
The test system of the next data set is UGTs. The note with it: stated as known, no reference given.
The mark [2] stands for this setting: CPE inhibition, ref Okello et al., 2013a.

As for `Cc1nnc(C(=O)NC(C)(C)c2nc(C(=O)NCc3ccc(F)cc3)c(O)c(=O)n2C)o1` [raltegravir], the EC50 in the data set with Wild-Type HIV-1 NL4-3 (setting [2]) was 6.54 nM. Further, the NOAEL in data set [1] (ref Merck, 2007) is 120 mg/kg/day. Also, the “UGT substrate status / dependence on UGTs for clearance” value (“UGT substrate status / dependence” for short) in the data set on UGTs was “substrates and depend on UGTs for clearance”. Where the note is “rats, po doses of 40–120 mg/kg, ref Merck, 2007”, the t1/2 is no more than 1.6 h. Further, the Cl rate (rats, ref Laufer et al., 2009) was 38.3 mL/min/kg. Moreover, the “Oral bioavailability (F)” value (ref Merck, 2007) is recorded as 32%.
As to `COc1cc2c(cc1Cc1cccc(Cl)c1F)c(=O)c(C(=O)O)cn2[C@H](CO)C(C)C` [elvitegravir], the EC50 with Wild-Type HIV-1 NL4-3 (setting [2]) is 0.82 nM. The “UGT substrate status / dependence” value with UGTs was “substrates and depend on UGTs for clearance”.
Regarding `C[C@@H]1CCO[C@H]2Cn3cc(C(=O)NCc4ccc(F)cc4F)c(=O)c(O)c3C(=O)N12` [dolutegravir], the EC50 in the data set on Wild-Type HIV-1 NL4-3 (ref Kobayashi et al., 2011) is 0.71 nM. Further, the NOAEL in data set [1] (adult rats, ref Rhodes et al., 2012) is on record as 50 mg/kg/day. The “UGT substrate status / dependence” value in the data set on UGTs was “substrates and depend on UGTs for clearance”.

By EC50 is commonly meant the midpoint of the concentration-response curve. What is called NOAEL is the highest tested level that showed no adverse finding.
